Results from doi:10.1101/2020.07.08.194076v1 (biorxiv, 2020).

Test system: SlG3
Assay: GGPPS enzyme assay
Format: biochemical, Solanum lycopersicum

Km (co-substrate 100 µM DMAPP) [µM] | Km (co-substrate 100 µM IPP) [µM] | SMILES
45.9 ± 4.86 | – | C=C(C)CCOP(=O)(O)OP(=O)(O)O [IPP]
– | 45.8 ± 6.81 | CC(C)=CCOP(=O)(O)OP(=O)(O)O [DMAPP]
